In patent US6689362B1, “Method for treating T-lineage leukemias and lymphomas using a CD7-specific monoclonal antibody (TXU-7) linked to the pokeweed antiviral protein (PAP)” (priority 1997, dated 2004):
Several values for one entry are separate records, joined by “and”; a condition that tells them apart may be missing. Identical values can stand only once.

Tested on: clinical HIV-1 isolates (AT-101, AT-328, AT-332)
Assay: Hu-PBL-SCID mouse model of human AIDS (HIV-PCR and HIV-culture)
Type: in vivo
[1] = 1 mg/ml in water, average 200 mg/kg/day

## Cc1cn([C@H]2C[C@H](N=[N+]=[N-])[C@@H](CO)O2)c(=O)[nH]c1=O [AZT, zidovudine]
[1]
  Cx+: 4/8
  PCR+: 4/10
  PCR+ Cx+: 4 and 4/8
  PCR+ CxND: 0/2
  PCR+ Cx−: 3 and 4/8
  PCR− Cx−: 0/8
  mice tested HIV-1 negative: 3 of 10
Treated Hu-PBL-SCID mice
  gp120 on CD7 cells from peritoneal cavities (flow cytometry): presence of gp120 on CD7 cells
